{"source": "paper PMC11191317", "about": "“PNSC928, a plant-derived compound, specifically disrupts CtBP2-p300 interaction and reduces inflammation in mice with acute respiratory distress syndrome” (Biology Direct, 2024)", "key": {"[1]": {"system": "MPAEpiC, RAW264.7, FL83B, TKPTS, and HL-1 cells", "assay": "Cell viability assay in normal cell lines", "format": "cell-based, mouse", "conditions": "for Cell growth (cell viability) at lower doses: co-treated with LPS, MTOB 5 mM, NSC95397 10 µM, C646 3 µM, A-485 5 nM, TPCA1 150 nM, BOT64 1 µM; for Cell growth (cell viability assay): assessed every 24 h for 5 days", "source_text": "Mouse pulmonary alveolar epithelial cells (MPAEpiC) were sourced from ScienCell Research Laboratories (Carlsbad, CA, USA; #M3200-57). The mouse macrophage cell line RAW 264.7 (#TIB-71), the mouse liver hepatocyte cell line FL83B (#CRL-2390), and the mouse kidney epithelial-like cell line TKPTS (#CRL-3361) were sourced from the American Type Culture Collection (ATCC) (Manassas, VA, USA). Additionally, the mouse cardiac muscle cell line HL-1 (SCC065) was acquired from Sigma-Aldrich. All cell lines were maintained in Dulbecco’s Modified Eagle Medium (DMEM) (Thermo Fisher; #A1048901) fortified with 10% fetal bovine serum (FBS) (Thermo Fisher; #A5256701) and a combination of 100 U/mL penicillin and streptomycin (Thermo Fisher; #15,140,122). Cells were cultured in a 37 °C incubator with 5% CO2, and the medium was changed every 2–3 days. For targeted gene manipulation, cells were transfected with gene-specific short hairpin RNAs (shRNAs) (Table S1) or plasmids (Table S2). Transfection was facilitated using the Lipofectamine 3000 Transfection Reagent (Thermo Fisher; #L3000001) as per the manufacturer’s recommended protocol.\n(§1) For LPS treatment, different knockdown (KD) cell lines—Control^KD, CtBP2^KD, p300^KD, and p65^KD, all derived from MPAEpiC—were seeded in 12-well plates and cultured at 37 °C until reaching 80% confluence. The cells were then treated with 200 ng/mL of LPS for 6 h, washed three times with PBS, and subjected to the required experiments. For experiments involving inhibitors of CtBP2, p300, and NF-κB, as well as the compound PNSC928, MPAEpiC, RAW264.7, FL83B, TKPTS, and HL-1 cells were seeded in 12-well plates and cultured at 37 °C to reach 80% confluence. Cells were then cotreated with 200 ng/mL LPS along with varying concentrations of the following chemicals: MTOB (0, 5, 10, or 20 mM), NSC95397 (0, 10, 20, or 40 µM), C646 (0, 3, 6, or 12 µM), A-485 (0, 5, 10, or 20 nM), TPCA1 (0, 150, 300, or 600 nM), BOT64 (0, 1, 2, or 4 µM), or PNSC928 (0, 11.8, 23.6, or 47.2 µM). After 6 h of treatment, cells were washed three times with PBS before proceeding with further experiments.\nFig. 5 Determination of PNSC928 cytotoxicity and evaluation of PNSC928 effects on the expression levels of CtBP2/p300/NF-κB target genes. (A-E) Cell viability assessment. Five cell lines, including MPAEpiC (A), RAW264.7 (B), FL83B (C), TKPTS (D), and HL-1 (E) were treated with varying concentrations of PNSC928 ([…]). Cell viability was assessed every 24 h for 5 days. (F-I) Effects of PNSC928 on gene expression levels. The RAW264.7 cells were co-treated with LPS and PNSC928 (23.6 and 47.2 µM) for a duration of 6 h. Subsequently, RNA isolation and RT-qPCR analysis were performed to quantify mRNA levels of various genes. (F) The mRNA levels of IL-1B, IL-6, IL-15, IL-18, TNFA, and IFNG. (G) The mRNA levels of CDH1, CDKN1A, CDKN2A, CHRD, PAX6, and BAX. (H) The mRNA levels of NOD2, CCL2, CXCL10, CXCL12, MMP1, and STAT1 mRNA levels, (I) The mRNA levels of MIP2, CCR5, GM-CSF, COX2, and iNOS. n = 3 for each experiment. ns: no significant difference. **P < 0.01; ***P < 0.001\nFive cell lines (MPAEpiC, RAW264.7, FL83B, TKPTS, and HL-1) were treated with MTOB (5 and 10 mM), NSC95397 (10 and 20 μM), C646 (3 and 6 μM), A-485 (5 and 10 nM), TCPA1 (150 and 300 nM), and BOT-64 (1 and 2 μM). Cell viability was assessed every 24 hours for 5 days. n=3 for all experiments. *P<0.05."}, "[2]": {"system": "MPAEpiC and RAW264.7 cells", "assay": "RT-qPCR of CtBP2/p300/NF-κB target genes in MPAEpiC and RAW264.7 cells cotreated with LPS and inhibitors", "format": "cell-based, mouse", "conditions": "LPS cotreatment, 6 h; for Expression of IL-1B, IL-6, IL-15, IL-18, TNFA, NOD2, CCL2, CXCL10, CXCL12, MMP1, and STAT1 / Expression of other genes under investigation (CtBP2 and NF-κB targets): p300 inhibitors; for Expression levels of IL-1B, IL-6, IL-8, IL-15, TNFA, MIP2, CCR5, GM-CSF, VEGF, COX2, and iNOS / Expression of the other studied genes (CtBP2 and p300 targets): NF-κB inhibitors; for Expression of IL-1B, IL-6, IL-15, IL-18, TNFA, CDH1, CDKN1A, CDKN2A, CHRD, PAX6, and BAX / Expression of the remaining genes (p300 and NF-κB targets): CtBP2 inhibitors", "experimental": "as §1\nRNA was isolated from both cultured cells and mouse lung tissues utilizing the TRIzol Reagent (Invitrogen; Shanghai, China; #15,596,018) in adherence to the manufacturer’s protocol. For each sample, 500 ng of RNA was employed for the synthesis of complementary DNA (cDNA) leveraging the High-Capacity cDNA Reverse Transcription Kit (Thermo Fisher; #4,368,814). Gene expression quantification was carried out using the SYBR GreenER qPCR SuperMix Universal (Thermo Fisher; #1176202K) in combination with the specific primers delineated in Table S3. Subsequent analysis normalized the expression levels to β-Actin, utilizing the 2^−ΔΔCt method.\nThe RAW264.7 cells were co-treated with LPS and the following compounds: 5 mM MTOB, 10 μM NSC95397, 3 μM C646, 5 nM A-485, 150 nM TPCA1, or 1 μM BOT64 for a duration of 6 hours. Subsequently, RNA isolation and RT-qPCR analysis were performed to quantify mRNA levels of various genes.\nThe MPAEpiC cells were co-treated with LPS and the following compounds: 5 mM MTOB, 10 μM NSC95397, 3 μM C646, 5 nM A-485, 150 nM TPCA1, or 1 μM BOT64 for a duration of 6 hours. Subsequently, RNA isolation and RT-qPCR analysis were performed to quantify mRNA levels of various genes."}}}
{"smiles": "CNC(=O)Nc1ccc2c(c1)CC[C@@]21OC(=O)N(CC(=O)N(Cc2ccc(F)cc2)[C@@H](C)C(F)(F)F)C1=O", "note": "[A-485]", "values": [{"measurement": "Cell growth (cell viability) at lower doses", "setting": "[1]", "result": "notable inhibition of cell growth"}, {"measurement": "Expression of IL-1B, IL-6, IL-15, IL-18, TNFA, NOD2, CCL2, CXCL10, CXCL12, MMP1, and STAT1", "setting": "[2]", "result": "significantly modulated"}, {"measurement": "Expression of other genes under investigation (CtBP2 and NF-κB targets)", "setting": "[2]", "result": "no discernible impact"}]}
{"smiles": "CC1(C)CC(=O)c2sc(=Nc3ccccc3)oc2C1", "note": "[BOT64]", "values": [{"measurement": "Cell growth (cell viability) at lower doses", "setting": "[1]", "result": "notable inhibition of cell growth"}, {"measurement": "Expression levels of IL-1B, IL-6, IL-8, IL-15, TNFA, MIP2, CCR5, GM-CSF, VEGF, COX2, and iNOS", "setting": "[2]", "result": "dose-dependent alteration"}, {"measurement": "Expression of the other studied genes (CtBP2 and p300 targets)", "setting": "[2]", "result": "without affecting"}]}
{"smiles": "CC1=NN(c2ccc(C(=O)O)cc2)C(=O)/C1=C\\c1ccc(-c2cc(C)c(C)cc2[N+](=O)[O-])o1", "note": "[C646]", "values": [{"measurement": "Cell growth (cell viability) at lower doses", "setting": "[1]", "result": "notable inhibition of cell growth"}, {"measurement": "Expression of IL-1B, IL-6, IL-15, IL-18, TNFA, NOD2, CCL2, CXCL10, CXCL12, MMP1, and STAT1", "setting": "[2]", "result": "significantly modulated"}, {"measurement": "Expression of other genes under investigation (CtBP2 and NF-κB targets)", "setting": "[2]", "result": "no discernible impact"}]}
{"smiles": "CSCCC(=O)C(=O)O", "note": "[MTOB]", "values": [{"measurement": "Cell growth (cell viability) at lower doses", "setting": "[1]", "result": "notable inhibition of cell growth"}, {"measurement": "Expression of IL-1B, IL-6, IL-15, IL-18, TNFA, CDH1, CDKN1A, CDKN2A, CHRD, PAX6, and BAX", "setting": "[2]", "result": "dose-dependent reversal"}, {"measurement": "Expression of the remaining genes (p300 and NF-κB targets)", "setting": "[2]", "result": "remained relatively unchanged"}]}
{"smiles": "O=C1C(SCCO)=C(SCCO)C(=O)c2ccccc21", "note": "[NSC95397]", "values": [{"measurement": "Cell growth (cell viability) at lower doses", "setting": "[1]", "result": "notable inhibition of cell growth"}, {"measurement": "Expression of IL-1B, IL-6, IL-15, IL-18, TNFA, CDH1, CDKN1A, CDKN2A, CHRD, PAX6, and BAX", "setting": "[2]", "result": "dose-dependent reversal"}, {"measurement": "Expression of the remaining genes (p300 and NF-κB targets)", "setting": "[2]", "result": "remained relatively unchanged"}]}
{"smiles": "CC(=CCCC1=CCC(C2COC(=O)C2)OC1O)CCC1=C(C)CCCC1(C)C", "note": "(centres unmarked) [PNSC928]", "values": [{"measurement": "Cell growth (cell viability assay)", "setting": "[1]; PNSC928 at 47.2 µM", "result": "slight inhibition of cell growth"}, {"measurement": "Cell growth (cell viability assay)", "setting": "[1]; PNSC928 at lower concentrations (≤ 23.6 µM), all tested cell lines", "result": "did not inhibit cell growth"}]}
{"smiles": "NC(=O)Nc1sc(-c2ccc(F)cc2)cc1C(N)=O", "note": "[TPCA1]", "values": [{"measurement": "Cell growth (cell viability) at lower doses", "setting": "[1]", "result": "notable inhibition of cell growth"}, {"measurement": "Expression levels of IL-1B, IL-6, IL-8, IL-15, TNFA, MIP2, CCR5, GM-CSF, VEGF, COX2, and iNOS", "setting": "[2]", "result": "dose-dependent alteration"}, {"measurement": "Expression of the other studied genes (CtBP2 and p300 targets)", "setting": "[2]", "result": "without affecting"}]}
